Test results reported in ChEMBL document CHEMBL5518181, “Studies of antibacterial activity (in vitro and in vivo) and mode of action for des-acyl tridecaptins (DATs)” (Eur J Med Chem, 2024).
Activity calls are given as the source filed them.

Legend:
Klebsiella pneumoniae [1] = experiment: Antibacterial activity against Klebsiella pneumoniae ATCC 43816 assessed as inhibition of bacterial growth incubated for 18 hrs; assay type: functional; details: read-out: MIC100
Klebsiella aerogenes = experiment: Antibacterial activity against Enterobacter aerogenes ATCC 13048 assessed as inhibition of bacterial growth incubated for 18 hrs; assay type: functional; details: read-out: MIC100
[2] = Drug uptake in Acinetobacter baumannii ATCC 19606 whole cells at 10 uM incubated for 10 mins by LC-MS/MS analysis; assay type: ADME
Proteus mirabilis [3] = experiment: Antibacterial activity against Proteus mirabilis ATCC 7002 assessed as inhibition of bacterial growth incubated for 18 hrs; assay type: functional; details: read-out: MIC100
Escherichia coli [4] = experiment: Antibacterial activity against Escherichia coli ATCC BAA-2469 expressing NDM-1 assessed as inhibition of bacterial growth incubated for 18 hrs; assay type: functional; details: read-out: MIC100
[5] = Drug uptake in Proteus mirabilis ATCC 7002 whole cells at 10 uM incubated for 10 mins by LC-MS/MS analysis; assay type: ADME
Escherichia coli [6] = experiment: Antibacterial activity against Escherichia coli ATCC 25922 assessed as inhibition of bacterial growth incubated for 18 hrs in presence of 25 mM bicarbonate; assay type: functional, organism-based
Citrobacter freundii = experiment: Antibacterial activity against Citrobacter freundii ATCC 8090 assessed as inhibition of bacterial growth incubated for 18 hrs; assay type: functional; details: read-out: MIC100
[7] = Hemolytic activity in human red blood cells at 400 ug/ml incubated for 45 mins by spectrophotometric analysis relative to control; assay type: toxicity, cell-based, Erythrocyte; details: red blood cells (erythrocytes), at 400 µg/mL, read-out: Activity
Klebsiella pneumoniae [8] = experiment: Antibacterial activity against Klebsiella pneumoniae ATCC BAA-2470 expressing NDM-1 assessed as inhibition of bacterial growth incubated for 18 hrs; assay type: functional; details: read-out: MIC100
[9] = Clearance in human microsomes; assay type: ADME, Microsome
Klebsiella pneumoniae [10] = experiment: Antibacterial activity against Klebsiella pneumoniae ATCC 13883 assessed as inhibition of bacterial growth incubated for 18 hrs in presence of 25 mM bicarbonate; assay type: functional, organism-based
Cell membrane [11] = experiment: Induction of membrane permeabilization in Escherichia coli ATCC 25922 at 64 ug/ml measured immediately by Sytox Green labelling based microscopic analysis; assay type: cell membranes; details: dose 64.0 µg/ml
Proteus mirabilis [12] = experiment: Antibacterial activity against Proteus mirabilis ATCC 25933 assessed as inhibition of bacterial growth incubated for 18 hrs; assay type: functional; details: read-out: MIC100
Klebsiella pneumoniae [13] = experiment: Antibacterial activity against Klebsiella pneumoniae ATCC 13883 assessed as inhibition of bacterial growth incubated for 18 hrs in presence of 5 mM KCl; assay type: functional, organism-based
Escherichia coli [14] = experiment: Antibacterial activity against Escherichia coli ATCC 25922 harboring hldE knock-out assessed as inhibition of bacterial growth incubated for 18 hrs; assay type: functional; details: read-out: MIC100
Escherichia coli [15] = experiment: Antibacterial activity against wild-type Escherichia coli ATCC 25922 assessed as inhibition of bacterial growth incubated for 18 hrs; assay type: functional; details: read-out: MIC100
Staphylococcus aureus [16] = experiment: Antibacterial activity against […] assessed as inhibition of bacterial growth incubated for 18 hrs; assay type: functional; details: ATCC 29213, read-out: MIC100
[17] = Clearance in rat microsomes; assay type: ADME, Microsome
[18] = Binding affinity to gram negative bacterial lipid II assessed as dissociation constant by ITC analysis; design: species or system Bacteria
Pseudomonas aeruginosa [19] = experiment: Antibacterial activity against wild-type Pseudomonas aeruginosa PAO1 assessed as inhibition of bacterial growth incubated for 24 hrs; assay type: functional; details: read-out: MIC100
Cell membrane [20] = experiment: Induction of membrane permeabilization in Escherichia coli ATCC 25922 at 64 ug/ml measured after 30 mins by Sytox Green labelling based microscopic analysis; assay type: cell membranes; details: dose 64.0 µg/ml
Enterobacter cloacae = experiment: Antibacterial activity against Enterobacter cloacae ATCC 23355 assessed as inhibition of bacterial growth incubated for 18 hrs; assay type: functional; details: read-out: MIC100
Klebsiella pneumoniae [21] = experiment: Antibacterial activity against Klebsiella pneumoniae ATCC 13883 assessed as inhibition of bacterial growth incubated for 18 hrs in presence of 2 mM CaCl2; assay type: functional, organism-based
Acinetobacter baumannii = experiment: Antibacterial activity against wild-type Acinetobacter baumannii ATCC 19606 assessed as inhibition of bacterial growth incubated for 20 hrs; assay type: functional; details: read-out: MIC100
Escherichia coli [22] = experiment: Antibacterial activity against wild-type Escherichia coli ATCC 25922 assessed as inhibition of bacterial growth incubated for 18 hrs in presence of 50% heat inactivated human serum; assay type: functional; details: read-out: MIC100
Cell membrane [23] = experiment: Induction of membrane permeabilization in Klebsiella pneumoniae ATCC 13883 at 64 ug/ml measured after 30 mins by Sytox Green labelling based microscopic analysis; assay type: cell membranes; details: dose 64.0 µg/ml
[24] = Drug uptake in Escherichia coli ATCC 25922 whole cells at 10 uM incubated for 10 mins by LC-MS/MS analysis; assay type: ADME
[25] = Drug localization in cytoplasm of Escherichia coli ATCC 25922 at 10 uM incubated for 10 mins by LC-MS/MS analysis; assay type: ADME, subcellular
Escherichia coli [26] = experiment: Antibacterial activity against Escherichia coli ATCC 25922 assessed as inhibition of bacterial growth incubated for 18 hrs in presence of 2 mM MgCl2; assay type: functional, organism-based
[27] = Cytotoxicity against human HepG2 cells incubated for 40 hrs by celltiter-glo luminescent cell viability assay; assay type: toxicity, cell-based
Klebsiella pneumoniae [28] = experiment: Antibacterial activity against Klebsiella pneumoniae ATCC 13883 assessed as inhibition of bacterial growth incubated for 18 hrs in presence of 150 mM NaCl; assay type: functional, organism-based
Pseudomonas aeruginosa [29] = experiment: Antibacterial activity against efflux-deficient Pseudomonas aeruginosa PAO750 assessed as inhibition of bacterial growth incubated for 18 hrs; assay type: functional; details: read-out: MIC100
[30] = Drug uptake in Pseudomonas aeruginosa PAO1 whole cells at 10 uM incubated for 10 mins by LC-MS/MS analysis; assay type: ADME
Lipopolysaccharide (LPS) [31] = experiment: Binding affinity to Pseudomonas aeruginosa LPS assessed as dissociation constant by ITC analysis; assay type: subcellular
Providencia stuartii = experiment: Antibacterial activity against Providencia stuartii ATCC 25826 assessed as inhibition of bacterial growth incubated for 18 hrs; assay type: functional; details: read-out: MIC100
Klebsiella pneumoniae [32] = experiment: Antibacterial activity against wild-type Klebsiella pneumoniae ATCC 13883 assessed as inhibition of bacterial growth incubated for 18 hrs; assay type: functional; details: read-out: MIC100
Cell membrane [33] = experiment: Induction of membrane permeabilization in Escherichia coli ATCC 25922 at 64 ug/ml measured after 2 hrs by Sytox Green labelling based microscopic analysis; assay type: cell membranes; details: dose 64.0 µg/ml
Cell membrane [34] = experiment: Induction of membrane permeabilization in Klebsiella pneumoniae ATCC 13883 at 64 ug/ml measured after 2 hrs by Sytox Green labelling based microscopic analysis; assay type: cell membranes; details: dose 64.0 µg/ml
Serratia marcescens = experiment: Antibacterial activity against intrinsically colistin resistant Serratia marcescens ATCC 13880 assessed as inhibition of bacterial growth incubated for 18 hrs; assay type: functional; details: read-out: MIC100
Klebsiella pneumoniae [35] = experiment: Antibacterial activity against wild-type Klebsiella pneumoniae ATCC 13883 assessed as inhibition of bacterial growth incubated for 18 hrs in presence of 50% heat inactivated human serum; assay type: functional; details: read-out: MIC100
Escherichia coli [36] = experiment: Antibacterial activity against Escherichia coli ATCC 25922 assessed as inhibition of bacterial growth incubated for 18 hrs in presence of 150 mM NaCl; assay type: functional, organism-based
[37] = Hydrophobicity of compound assessed as %MeCN at peak elution by RP-HPLC analysis; assay type: physicochemical
[38] = Clearance in mouse microsomes; assay type: ADME, Microsome
Lipopolysaccharide (LPS) [39] = experiment: Binding affinity to Escherichia coli O55:B5 LPS assessed as dissociation constant by ITC analysis; assay type: subcellular
Escherichia coli [40] = experiment: Antibacterial activity against Escherichia coli ATCC 25922 assessed as inhibition of bacterial growth incubated for 18 hrs in presence of 5 mM KCl; assay type: functional, organism-based
[41] = Aqueous solubility of compound at pH 7.4; assay type: physicochemical
Morganella morganii = experiment: Antibacterial activity against Morganella morganii ATCC 25830 assessed as inhibition of bacterial growth incubated for 18 hrs; assay type: functional; details: read-out: MIC100
Staphylococcus aureus [42] = experiment: Antibacterial activity against wild type Staphylococcus aureus USA300 assessed as inhibition of bacterial growth incubated for 18 hrs; assay type: functional; details: read-out: MIC100
Escherichia coli [43] = experiment: Antibacterial activity against Escherichia coli ATCC 25922 harboring tolC knock-out assessed as inhibition of bacterial growth incubated for 18 hrs; assay type: functional; details: read-out: MIC100
Escherichia coli [44] = experiment: Antibacterial activity against Escherichia coli ATCC 25922 assessed as inhibition of bacterial growth incubated for 18 hrs in presence of 2 mM CaCl2; assay type: functional, organism-based
[45] = Drug uptake in Escherichia coli ATCC 25922 at 10 uM incubated for 10 mins by LC-MS/MS analysis; assay type: ADME
[46] = Lipophilicity, logD of compound at pH 7.4; assay type: physicochemical; details: buffer
[47] = Aqueous solubility of compound at pH 4.6; assay type: physicochemical
Klebsiella pneumoniae [48] = experiment: Antibacterial activity against Klebsiella pneumoniae ATCC 13883 assessed as inhibition of bacterial growth incubated for 18 hrs in presence of 2 mM MgCl2; assay type: functional, organism-based
Escherichia coli [49] = experiment: Antibacterial activity against colistin resistant Escherichia coli NCTC 13846 harboring mcr-1 gene assessed as inhibition of bacterial growth incubated for 18 hrs; assay type: functional; details: read-out: MIC100
Salmonella typhimurium = experiment: Antibacterial activity against Salmonella typhimurium ATCC 13311 assessed as inhibition of bacterial growth incubated for 18 hrs; assay type: functional, Salmonella enterica subsp. enterica serovar Typhimurium; details: Salmonella enterica, read-out: MIC100

CC[C@H](C)[C@@H](NC(=O)[C@@H](NC(=O)[C@H](CCC(=O)O)NC(=O)[C@H](Cc1ccccc1)NC(=O)[C@@H](CCN)NC(=O)[C@H](CCN)NC(=O)[C@H](CO)NC(=O)[C@@H](Cc1c[nH]c2ccccc12)NC(=O)[C@@H](CO)NC(=O)CNC(=O)[C@@H](CCN)NC(=O)[C@H](N)C(C)C)C(C)C)C(=O)N[C@@H](C)C(=O)O
> 32 µg/mL: MIC (Klebsiella aerogenes) | MIC (Escherichia coli [4]) | MIC (Proteus mirabilis [12]) | MIC (Enterobacter cloacae) | MIC (Pseudomonas aeruginosa [29]) | MIC (Providencia stuartii) | MIC (Morganella morganii) | MIC (Staphylococcus aureus [42]) | MIC (Escherichia coli [43]) | MIC (Salmonella typhimurium)
active: Activity (Escherichia coli [6]) | Activity (Klebsiella pneumoniae [10]) | Activity (Klebsiella pneumoniae [13]) | Activity (Klebsiella pneumoniae [21]) | Activity (Escherichia coli [26]) | Activity (Klebsiella pneumoniae [28]) | Activity (Cell membrane [33]) | Activity (Cell membrane [34]) | Activity (Escherichia coli [36]) | Activity (Escherichia coli [40]) | Activity (Escherichia coli [44]) | Activity (Klebsiella pneumoniae [48])
1.09: logD [46]
~ 60 ng: Drug uptake [2] | Drug uptake [5] | Drug uptake [24] | Drug uptake [30]
13.5 µM: Kd (Lipopolysaccharide (LPS) [31])
> 64 µg/mL: MIC (Proteus mirabilis [3]) | MIC (Pseudomonas aeruginosa [19])
5.7 µM: Kd (Lipopolysaccharide (LPS) [39])
76 µg/mL: IC50 at 40 h [27]
32 µg/mL: MIC (Citrobacter freundii) | MIC (Klebsiella pneumoniae [8]) | MIC (Escherichia coli [15]) | MIC (Staphylococcus aureus [16]) | MIC (Acinetobacter baumannii) | MIC (Escherichia coli [22]) | MIC (Klebsiella pneumoniae [32]) | MIC (Serratia marcescens) | MIC (Escherichia coli [49])
0.6 µM: Kd [18]
3.6%: hemolysis at 0.75 h, 400 ug/ml [7]
Active: Drug uptake [25] | Drug uptake [45]
inactive: Activity (Cell membrane [11]) | Activity (Cell membrane [20]) | Activity (Cell membrane [23])
108 µL/min/mg: microsomal CLint [17]
> 1000 µg/mL: solubility [41] | solubility [47]
42%: MeCN percentage at peak elution [37]
22 µL/min/mg: microsomal CLint [9]
25 µL/min/mg: microsomal CLint [38]
8 µg/mL: MIC (Klebsiella pneumoniae [1]) | MIC (Escherichia coli [14]) | MIC (Klebsiella pneumoniae [35])
